Test results published in PubChem BioAssay AID1996.
≈ marks a conversion by molar mass, not a printed value.

settings: buffer; pH 7.4; 200.0 µM

Question: For `N#C/C(=C(/O)COC(=O)c1ccc(O)cc1)c1nc2ccccc2[nH]1`, which solubility kinetic is on record?
Answer: 9 µg/mL (≈ 26.8 µM)

Question: With `Nc1nc(-c2ccc3c(c2)CCCC3)c(CC(=O)O)s1` as the compound, how does the solubility kinetic read?
Answer: 42.3 µg/mL (≈ 147 µM)

Question: Which solubility kinetic does the source give for `COCCNc1nnc(Cc2ccc(OC)c(OC)c2)c(=O)[nH]1` here?
Answer: > 48.1 µg/mL

Question: For `Cc1ccccc1C(=O)Nc1ccc(S(=O)(=O)N2CCOCC2)cc1`, which solubility kinetic is on record?
Answer: > 54.1 µg/mL

Question: With `O=S(=O)(c1ccc(F)c(F)c1F)N1CCN(c2ncnc3sccc23)CC1` as the compound, how does the solubility kinetic read?
Answer: 2.5 µg/mL (≈ 6.03 µM)

Question: Which solubility kinetic does the source give for `NC(=O)C1CCN(C(=O)COc2ccc3c(c2)oc(=O)c2ccccc23)CC1` here?
Answer: 10.8 µg/mL (≈ 28.4 µM)

Question: For `CC(C)C(=O)Nc1ccc(Oc2ccc3c(c2)C(=O)NC3=O)cc1`, which solubility kinetic is on record?
Answer: < 0.3 µg/mL

Question: With `CN(C)CCCN=Cc1c(O)n(Cc2ccco2)c(=O)[nH]c1=O` as the compound, how does the solubility kinetic read?
Answer: 36.4 µg/mL (≈ 114 µM)

Question: For `O=C(O)CN(CCc1ccccc1)S(=O)(=O)c1ccccc1`, which solubility kinetic is on record?
Answer: > 47.9 µg/mL

Question: With `C=CCn1c(-c2ccc(Cl)cc2)cnc1SC(C)C(N)=O` (stereo not given) as the compound, how does the solubility kinetic read?
Answer: 7.1 µg/mL (≈ 22.1 µM)

Question: With `CCCn1c(C)cc(C=O)c1C` as the compound, how does the solubility kinetic read?
Answer: 16.3 µg/mL (≈ 98.6 µM)

Question: With `CC(NC(=O)CN1CCOCC1)c1ccc(F)cc1` (stereo not given) as the compound, how does the solubility kinetic read?
Answer: > 39.9 µg/mL

Question: Which solubility kinetic does the source give for `Cn1c(C(=O)O)ccc1S(=O)(=O)N(Cc1ccccc1)Cc1ccccc1` here?
Answer: > 57.7 µg/mL

Question: For `O=C(c1cc([N+](=O)[O-])[nH]n1)N1CCSCC1`, which solubility kinetic is on record?
Answer: > 36.3 µg/mL

Question: With `O=C(CN1CCN(Cc2ccccc2Cl)C1=O)NCc1ccccn1` as the compound, how does the solubility kinetic read?
Answer: > 53.8 µg/mL

Question: For `CC1CCc2c(sc3ncn(CCO)c(=O)c23)C1` (stereo not given), which solubility kinetic is on record?
Answer: > 39.7 µg/mL

Question: For `COC(=O)c1ccc(NC(=O)Nc2ccc(OC)cc2)cc1`, which solubility kinetic is on record?
Answer: 1.4 µg/mL (≈ 4.66 µM)

Question: For `O=C(O)c1ccccc1Nc1ccc(OC(F)F)cc1`, which solubility kinetic is on record?
Answer: > 41.9 µg/mL

Question: With `CCOc1ccc(Br)cc1S(=O)(=O)N1CCSC1` as the compound, how does the solubility kinetic read?
Answer: 7.2 µg/mL (≈ 20.4 µM)

Question: Which solubility kinetic does the source give for `C=CCc1ccccc1OCC(O)CN1CCOCC1` (stereo not given) here?
Answer: > 41.6 µg/mL

Question: Which solubility kinetic does the source give for `COc1ccc(NC(=O)c2nn(C)cc2[N+](=O)[O-])cc1` here?
Answer: > 41.4 µg/mL

Question: Which solubility kinetic does the source give for `CCNC(=O)c1ccc(C23CC4CC(CC(C4)C2)C3)o1` here?
Answer: < 0.6 µg/mL

Question: Which solubility kinetic does the source give for `O=Cc1cnc2ccccc2c1-c1ccccc1` here?
Answer: 27.8 µg/mL (≈ 119 µM)

Question: With `CC(C)(C)NC(=O)COC(=O)c1cc(Cl)ccc1[N+](=O)[O-]` as the compound, how does the solubility kinetic read?
Answer: > 47.2 µg/mL

Question: Which solubility kinetic does the source give for `COc1cc(OC)cc(C(=O)NCC(=O)NCc2ccccn2)c1` here?
Answer: > 49.4 µg/mL

Question: For `CN1CCC(N(C)CC(O)c2ccccc2)CC1.O=C(O)C(=O)O` (stereo not given), which solubility kinetic is on record?
Answer: > 50.8 µg/mL

Question: With `O=c1c2nccnc2[nH]c(=S)n1Cc1ccccc1Cl` as the compound, how does the solubility kinetic read?
Answer: > 45.7 µg/mL

Question: Which solubility kinetic does the source give for `O=C(COC(=O)c1ccco1)NCc1ccccc1Cl` here?
Answer: > 44.1 µg/mL

Question: With `COC(=O)c1ccccc1NC(=O)CCn1c(=O)oc2ccccc21` as the compound, how does the solubility kinetic read?
Answer: > 51.1 µg/mL

Question: With `O=C1N=C(N2CCCCC2)S/C1=C\c1ccncc1` as the compound, how does the solubility kinetic read?
Answer: > 41 µg/mL

Question: Which solubility kinetic does the source give for `CCOc1ccccc1C(=O)NCC(=O)OCCOc1cccc(Cl)c1` here?
Answer: 34 µg/mL (≈ 90 µM)

Question: With `Cc1cc(C)c2c(CN3CCCCC3C)cc(=O)oc2c1.Cl` (stereo not given) as the compound, how does the solubility kinetic read?
Answer: 2 µg/mL

Question: With `O=[N+]([O-])c1[nH]cnc1/C=C/c1ccccc1` as the compound, how does the solubility kinetic read?
Answer: 1.8 µg/mL (≈ 8.36 µM)

Question: With `Cc1ccc(F)cc1NC(=O)C1C2CCC(O2)C1C(=O)O` (stereo not given) as the compound, how does the solubility kinetic read?
Answer: > 44 µg/mL

Question: For `Cc1noc(C)c1COc1ccccc1C(=O)NC1CCC(C)CC1` (stereo not given), which solubility kinetic is on record?
Answer: > 51.4 µg/mL

Question: With `Cn1c(Cc2ccccc2)nnc1SCC(=O)NCCc1ccccc1` as the compound, how does the solubility kinetic read?
Answer: > 55 µg/mL

Question: Which solubility kinetic does the source give for `O=C(/C=C/c1cccc(F)c1)N1CCN(c2ncccn2)CC1` here?
Answer: 12.4 µg/mL (≈ 39.7 µM)

Question: Which solubility kinetic does the source give for `CC(C)(C)N=C(NS(=O)(=O)c1cccs1)c1ccccc1` here?
Answer: > 48.4 µg/mL

Question: Which solubility kinetic does the source give for `CCCCN(C(=O)c1cnccn1)c1c(N)n(CCC)c(=O)[nH]c1=O` here?
Answer: 46.9 µg/mL (≈ 135 µM)

Question: For `COc1ccc(OC)c(NC(=O)c2ccno2)c1`, which solubility kinetic is on record?
Answer: > 37.2 µg/mL

Question: For `COc1ccc(C)cc1N(CC(=O)N1CCOCC1)S(C)(=O)=O`, which solubility kinetic is on record?
Answer: > 51.4 µg/mL

Question: Which solubility kinetic does the source give for `CC(=O)Nc1ccc(N2CCN(c3ccc(C(F)(F)F)cn3)CC2)nc1` here?
Answer: 0.8 µg/mL (≈ 2.19 µM)

Question: For `NS(=O)(=O)c1ccc(CCNC(=O)C2CCN(C(=O)Nc3ccccc3)CC2)cc1`, which solubility kinetic is on record?
Answer: 63.9 µg/mL (≈ 148 µM)

Question: With `O=C(O)c1cc(NC(=O)C2CCCO2)cc(C(=O)O)c1` (stereo not given) as the compound, how does the solubility kinetic read?
Answer: > 41.9 µg/mL

Question: Which solubility kinetic does the source give for `CCC1CCCCN1C(=O)CNCC1CCCO1.Cl` (stereo not given) here?
Answer: 27.4 µg/mL

Question: With `CCn1ncc(N2CCOCC2)c(Cl)c1=O` as the compound, how does the solubility kinetic read?
Answer: > 36.6 µg/mL

Question: Which solubility kinetic does the source give for `COc1ccc(-c2nc(N)ncc2-c2ccc(Cl)cc2)c(O)c1` here?
Answer: < 0.2 µg/mL

Question: With `Cc1cc(C(=O)OCC(=O)Nc2cccc(S(N)(=O)=O)c2)c(C)o1` as the compound, how does the solubility kinetic read?
Answer: > 52.9 µg/mL

Question: For `Cc1csc(=O)n1CCC(=O)NCc1ccc(F)cc1`, which solubility kinetic is on record?
Answer: > 44.2 µg/mL

Question: With `Cc1csc(NC(=O)CSC2=NCCS2)n1` as the compound, how does the solubility kinetic read?
Answer: 40.5 µg/mL (≈ 148 µM)

Question: Which solubility kinetic does the source give for `O=S(=O)(Nc1cccc(Oc2ccc(Cl)cc2)n1)c1ccc(F)cc1` here?
Answer: 41.9 µg/mL (≈ 111 µM)

Question: With `NS(=O)(=O)c1ccc(NC(=O)CSc2nc3ccccc3c(=O)n2Cc2ccncc2)cc1` as the compound, how does the solubility kinetic read?
Answer: 8 µg/mL (≈ 16.6 µM)

Question: Which solubility kinetic does the source give for `O=C1CCCN1CCCNS(=O)(=O)c1cccc(F)c1` here?
Answer: > 45.1 µg/mL

Question: For `O=C(Nc1ccc(S(=O)(=O)N2CCCC2)cc1)c1ccc([N+](=O)[O-])o1`, which solubility kinetic is on record?
Answer: 6.8 µg/mL (≈ 18.6 µM)

Question: Which solubility kinetic does the source give for `O=C(COC(=O)c1ccc(S(=O)(=O)NCc2ccco2)cc1)NCc1ccccc1` here?
Answer: 7.4 µg/mL (≈ 17.3 µM)

Question: With `CCOC(=O)c1c(C)[nH]c(C)c1C(=O)COC(=O)c1ccc(Cl)nc1` as the compound, how does the solubility kinetic read?
Answer: > 54.7 µg/mL

Question: For `O=C(NC1C/C(=N/O)c2cc3c(cc21)OCO3)C(F)(F)F` (stereo not given), which solubility kinetic is on record?
Answer: 32.3 µg/mL (≈ 107 µM)

Question: For `COc1ccc(Nc2ncnc3sc(C)cc23)cc1.Cl`, which solubility kinetic is on record?
Answer: 14.8 µg/mL

Question: For `COc1ccc(OCC(O)CNS(=O)(=O)c2ccc(C)cc2)cc1` (stereo not given), which solubility kinetic is on record?
Answer: > 52.7 µg/mL

Question: Which solubility kinetic does the source give for `COc1cc(NC(=O)COC(=O)CC2CC3CCC2C3)cc(OC)c1` (stereo not given) here?
Answer: 14.6 µg/mL (≈ 42 µM)

Question: For `COC(=O)c1scc(C)c1NC(=O)/C=C/C(=O)O`, which solubility kinetic is on record?
Answer: 38.8 µg/mL (≈ 144 µM)

Question: Which solubility kinetic does the source give for `COc1ccc(Cl)cc1NC(=O)C1CC(c2ccccc2O)=NO1` (stereo not given) here?
Answer: 0.9 µg/mL (≈ 2.6 µM)

Question: With `CN(CC(=O)Nc1ccc(F)cc1)C(=O)CN1C(=O)NC2(CCCCC2)C1=O` as the compound, how does the solubility kinetic read?
Answer: 0.7 µg/mL (≈ 1.79 µM)

Question: Which solubility kinetic does the source give for `O=C(Nc1ccc(Cl)cc1F)c1ccc2c(c1)C(=O)N(Cc1ccncc1)C2=O` here?
Answer: 10.8 µg/mL (≈ 26.4 µM)

Question: With `CC(=O)Nc1ccc(OCC(O)Cn2nc(C)c(C)c2C)cc1` (stereo not given) as the compound, how does the solubility kinetic read?
Answer: > 47.6 µg/mL

Question: With `Cl.O=C(NCCN1CCCC1)c1ccc(Br)cc1` as the compound, how does the solubility kinetic read?
Answer: > 50 µg/mL

Question: Which solubility kinetic does the source give for `COc1ccccc1CNC(=O)c1sccc1C` here?
Answer: 26.6 µg/mL (≈ 102 µM)

Question: Which solubility kinetic does the source give for `COCCC(=O)Nc1ccc2c(c1)CN(C(=O)CSC)CC2` here?
Answer: > 48.4 µg/mL

Question: Which solubility kinetic does the source give for `COc1ccc(CCNC(=O)C(=O)NCc2ccccn2)cc1` here?
Answer: > 47 µg/mL

Question: Which solubility kinetic does the source give for `CNC(=O)c1cc2cc(Br)ccc2s1` here?
Answer: 8.1 µg/mL (≈ 30 µM)

Question: With `Cc1nc(N)nc(Cl)c1Cc1ccc(Cl)cc1` as the compound, how does the solubility kinetic read?
Answer: 3.6 µg/mL (≈ 13.4 µM)

Question: Which solubility kinetic does the source give for `O=C(NC1=NCCS1)c1cccc(F)c1` here?
Answer: > 33.6 µg/mL

Question: With `O=C(NCc1ccccc1)c1ccc(NC(=O)c2ccco2)cc1` as the compound, how does the solubility kinetic read?
Answer: 2 µg/mL (≈ 6.24 µM)

Question: Which solubility kinetic does the source give for `Cc1noc(C)c1C(=O)Nc1ccccc1N1CCCC1` here?
Answer: 37.6 µg/mL (≈ 132 µM)

Question: Which solubility kinetic does the source give for `C/C=C/COC(=O)C1=C(C)NC(=O)NC1c1ccc2c(c1)OCO2` (stereo not given) here?
Answer: 15.5 µg/mL (≈ 46.9 µM)

Question: For `COC(=O)c1ccccc1Oc1cnc2ccccc2n1`, which solubility kinetic is on record?
Answer: > 42 µg/mL

Question: For `COc1ccc(N2CCN(c3ccc(Cl)nn3)CC2)cc1`, which solubility kinetic is on record?
Answer: > 45.7 µg/mL

Question: With `N#Cc1ccccc1Cn1c(=O)oc2ccccc21` as the compound, how does the solubility kinetic read?
Answer: 30.9 µg/mL (≈ 123 µM)

Question: For `COc1cccc(/C=c2\s/c(=C\C(=O)C(C)(C)C)[nH]c2=O)c1`, which solubility kinetic is on record?
Answer: 2.1 µg/mL (≈ 6.62 µM)

Question: Which solubility kinetic does the source give for `O=C(COC(=O)c1ccc(Cl)nc1)NCCc1ccccc1` here?
Answer: 45.5 µg/mL (≈ 143 µM)

Question: With `Clc1nssc1=Nc1ccccc1` as the compound, how does the solubility kinetic read?
Answer: 22.3 µg/mL (≈ 97.5 µM)

Question: With `COc1cc(OC)c(C(=O)Nc2ccc(C(=O)c3ccccc3)cc2)cc1OC` as the compound, how does the solubility kinetic read?
Answer: 3.4 µg/mL (≈ 8.69 µM)

Question: For `O=C(Nc1ccccc1N1CCOCC1)c1ccc([N+](=O)[O-])s1`, which solubility kinetic is on record?
Answer: 4.6 µg/mL (≈ 13.8 µM)

Question: For `CC(=O)Nc1ccc(/C=C(\C#N)S(=O)(=O)c2ccc(C)cc2)cc1`, which solubility kinetic is on record?
Answer: 5.2 µg/mL (≈ 15.3 µM)

Question: Which solubility kinetic does the source give for `Cn1c(=O)cc(Nc2ccccc2)[nH]c1=O` here?
Answer: 10.3 µg/mL (≈ 47.4 µM)
